From US8871767B2, “2-arylimidazo[1,2-B]pyridazine, 2-phenylimidazo[1,2-A]pyridine, and 2-phenylimidazo[1,2-A]pyrazine derivatives” (Hengrui (USA) Ltd., priority 2010, dated 2014)

The compounds below were run on Hedgehog pathway activation (GLi-luciferase reporter) in Shh Light II reporter cells (assay: Hedgehog pathway activation on Shh Light II reporter cells measured by luciferase activity). Conditions: Mus musculus, Shh Light II, hShh activation, read-out: Shh (IC50, inhibition of Hedgehog pathway activation).
Format: cell-based
Procedure, shortened: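 Shh Light II reporter cells carrying a hedgehog-responsive GLi-luciferase reporter were stimulated either with 500 nM SAG, a direct Smoothened agonist, or with conditioned media containing human Sonic Hedgehog (hShh). Test compounds were evaluated for blocking this pathway activation, quantified by luciferase activity. Cell viability was monitored in parallel with the Celltiter-Blue® assay.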
An IC50 of 339 nM was found for `CC(C)(C)C(=O)Nc1cc(-c2cn3nc(N4CCC[C@@H]4CO)ccc3n2)ccc1C(F)(F)F` [Example 469, (R)-N-(5-(6-(2-(hydroxymethyl)pyrrolidin-1-yl)imidazo[1,2-b]pyridazin-2-yl)-2-(trifluoromethyl)phenyl)pivalamide] in this work.
An IC50 of 78 nM was found for `Cc1ccc(-c2cn3nc(NC(=O)c4ncccc4Cl)ccc3n2)cc1NC(=O)C(C)(C)C` [compound 612] in this work.
An IC50 of 1060 nM was found for `Cc1ccc(-c2cn3nc(C4=CCCC4)ccc3n2)cc1NC(=O)C(C)(C)C` [Example 442, N-(5-(6-cyclopentenylimidazo[1,2-b]pyridazin-2-yl)-2-methylphenyl)pivalamide] in this work.
An IC50 of 1710 nM was found for `COC(=O)CCCCCCN(C(=O)C(C)(C)C)c1cc(-c2cn3nc(-c4cccnc4C(F)(F)F)ccc3n2)ccc1C` [compound 516, methyl 7-(N-(2-methyl-5-(6-(2-(trifluoromethyl)pyridin-3-yl)imidazo[1,2-b]pyridazin-2-yl)phenyl)pivalamido)heptanoate] in this work.
An IC50 of 35 nM was found for `Cc1ccc(-c2cn3nc(-c4cccc(F)c4Cl)ccc3n2)cc1NC(=O)C(C)(C)C` [compound 619] in this work.
An IC50 of 1460 nM was found for `CC(C)c1ccccc1-c1ccc2nc(-c3ccc(C(F)(F)F)c(NC(=O)C(C)(C)C)c3)cn2n1` [Example 324, N-(5-(6-(2-isopropylphenyl)imidazo[1,2-b]pyridazin-2-yl)-2-(trifluoromethyl)phenyl)pivalamide] in this work.
An IC50 of 364 nM was found for `CCOC(=O)C=Cc1cccc(-c2ccc3nc(-c4ccc(C)c(NC(=O)C(C)(C)C)c4)cn3n2)c1` [compound 551] in this work.
An IC50 of 3200 nM was found for `Cc1ccc(-c2cn3nc(Cl)ccc3n2)cc1NC(=O)C(C)(C)C#N` [compound 620] in this work.
An IC50 of 2580 nM was found for `CC(C)(C)C(=O)Nc1cc(-c2cn3nc(-c4cccc(CO)c4)ccc3n2)ccc1C(F)(F)F` [Example 323, N-(5-(6-(3-(hydroxymethyl)phenyl)imidazo[1,2-b]pyridazin-2-yl)-2-(trifluoromethyl)phenyl)pivalamide] in this work.
An IC50 of 1880 nM was found for `Cc1ccc(-c2cn3nc(C4=CCCCC4)ccc3n2)cc1NC(=O)C(C)(C)C` [Example 443, N-(5-(6-cyclohexenylimidazo[1,2-b]pyridazin-2-yl)-2-methylphenyl)pivalamide] in this work.
An IC50 of 456 nM was found for `Cc1ccc(-c2cn3nc(-c4ccc(-c5nc(=O)[nH][nH]5)cc4C(F)(F)F)ccc3n2)cc1NC(=O)C(C)(C)C` [compound 590] in this work.
An IC50 of 348 nM was found for `Cc1ccc(-c2cn3nc(NS(=O)(=O)c4cccc(Br)c4)ccc3n2)cc1NC(=O)C(C)(C)C` [compound 595] in this work.
An IC50 of 1340 nM was found for `COC(=O)c1csc(-c2cc(-c3cn4nc(-c5cccnc5C(F)(F)F)ccc4n3)ccc2C)n1` [compound 506] in this work.
An IC50 of 2040 nM was found for `Cc1ccc(-c2cn3nc(NCc4ccc(CO)cc4)ccc3n2)cc1NC(=O)C(C)(C)C` [compound 593] in this work.
An IC50 of 1250 nM was found for `CCN1CCN(c2ccc3nc(-c4ccc(C(F)(F)F)c(NC(=O)C(C)(C)C)c4)cn3n2)CC1` [Example 317, N-(5-(6-(4-ethylpiperazin-1-yl)imidazo[1,2-b]pyridazin-2-yl)-2-(trifluoromethyl)phenyl)pivalamide] in this work.
An IC50 of 63 nM was found for `Cc1ccc(-c2cn3nc(-c4cc(C(N)=NO)ccc4C)ccc3n2)cc1NC(=O)C(C)(C)C` [compound 577] in this work.
An IC50 of 4060 nM was found for `Cc1ccc(-c2cn3nc(-c4cccnc4C(F)(F)F)ccc3n2)cc1NC(=O)CCCCC(=O)NO` [Example 440, N^1-hydroxy-N^6-(2-methyl-5-(6-(2-(trifluoromethyl)pyridin-3-yl)imidazo[1,2-b]pyridazin-2-yl)phenyl)adipamide] in this work.
An IC50 of 734 nM was found for `Cc1ccc(-c2cn3nc(-c4ccc(C(N)=O)nc4)ccc3n2)cc1NC(=O)C(C)(C)C` [compound 537] in this work.
An IC50 of 813 nM was found for `Cc1ccc(-c2cn3nc(-c4cccnc4C(F)(F)F)ccc3n2)cc1NC(=O)c1cccc(C=CC(=O)NO)c1` [compound 625, 3-(3-(hydroxyamino)-3-oxoprop-1-en-1-yl)-N-(2-methyl-5-(6-(2-(trifluoromethyl)pyridin-3-yl)imidazo[1,2-b]pyridazin-2-yl)phenyl)benzamide] in this work.
An IC50 of 155 nM was found for `Cc1ccc(-c2cn3nc(-c4ccc(C(N)=NO)cc4C)ccc3n2)cc1NC(=O)C(C)(C)C` [compound 576] in this work.
An IC50 of 917 nM was found for `Cc1ccc(-c2cn3nc(-c4ccc(C(F)(F)F)nc4)ccc3n2)cc1NC(=O)C(C)(C)C` [Example 322, N-(2-methyl-5-(6-(6-(trifluoromethyl)pyridin-3-yl)imidazo[1,2-b]pyridazin-2-yl)phenyl)pivalamide] in this work.
An IC50 of 277 nM was found for `Cc1ccc(-c2nc3ccc(-c4ccc(C(F)(F)F)nc4)nn3c2C)cc1NC(=O)C(C)(C)C` [Example 339, N-(2-methyl-5-(3-methyl-6-(6-(trifluoromethyl)pyridin-3-yl)imidazo[1,2-b]pyridazin-2-yl)phenyl)pivalamide] in this work.
An IC50 of 578 nM was found for `Cc1ccc(-c2cn3nc(N)ccc3n2)cc1NC(=O)C(C)(C)C` [compound 591, N-(5-(6-aminoimidazo[1,2-b]pyridazin-2-yl)-2-methylphenyl)pivalamide] in this work.
An IC50 of 1000 nM was found for `Cc1ccc(-c2cn3nc(-c4c(C)n[nH]c4C)ccc3n2)cc1NC(=O)C(C)(C)C` [compound 501] in this work.
An IC50 of 807 nM was found for `CC(C)(C)C(=O)Nc1cc(-c2cn3nc(N4CC(F)(F)C4)ccc3n2)ccc1C(F)(F)F` [Example 315, N-(5-(6-(3,3-difluoroazetidin-1-yl)imidazo[1,2-b]pyridazin-2-yl)-2-(trifluoromethyl)phenyl)pivalamide] in this work.
An IC50 of 1270 nM was found for `CCOC(=O)CC(=O)Nc1cc(-c2cn3nc(-c4cccnc4C(F)(F)F)ccc3n2)ccc1C` [Example 435, ethyl 3-(2-methyl-5-(6-(2-(trifluoromethyl)pyridin-3-yl)imidazo[1,2-b]pyridazin-2-yl)phenylamino)-3-oxopropanoate] in this work.
An IC50 of 87 nM was found for `Cc1ccc(-c2cn3nc(-c4ccc(C(=N)NN)cc4C(F)(F)F)ccc3n2)cc1NC(=O)C(C)(C)C` [compound 586] in this work.
An IC50 of 409 nM was found for `Cc1ccnc(F)c1-c1ccc2nc(-c3ccc(C(F)(F)F)c(NC(=O)C(C)(C)C)c3)cn2n1` [Example 342, N-(5-(6-(2-fluoro-4-methylpyridin-3-yl)imidazo[1,2-b]pyridazin-2-yl)-2-(trifluoromethyl)phenyl)pivalamide] in this work.
An IC50 of 370 nM was found for `Cc1ccc(-c2cn3nc(-c4cncc(C(F)(F)F)c4)ccc3n2)cc1NC(=O)C(C)(C)C` [compound 536, N-(2-methyl-5-(6-(5-(trifluoromethyl)pyridin-3-yl)imidazo[1,2-b]pyridazin-2-yl)phenyl)pivalamide] in this work.
An IC50 of 421 nM was found for `Cc1ccc(-c2cn3nc(-c4cccc(C(F)(F)F)n4)ccc3n2)cc1NC(=O)C(C)(C)C` [Example 458, N-(2-methyl-5-(6-(6-(trifluoromethyl)pyridin-2-yl)imidazo[1,2-b]pyridazin-2-yl)phenyl)pivalamide] in this work.
An IC50 of 398 nM was found for `CCc1ccc(-c2cn3nc(-c4ccc(C(F)(F)F)nc4)ccc3n2)cc1NC(=O)C(C)(C)C` [Example 338, N-(2-ethyl-5-(6-(6-(trifluoromethyl)pyridin-3-yl)imidazo[1,2-b]pyridazin-2-yl)phenyl)pivalamide] in this work.
An IC50 of 873 nM was found for `Cc1ccc(-c2cn3nc(-c4ccc(O)nc4)ccc3n2)cc1NC(=O)C(C)(C)C` [Example 404, N-(5-(6-(6-hydroxypyridin-3-yl)imidazo[1,2-b]pyridazin-2-yl)-2-methylphenyl)pivalamide] in this work.
An IC50 greater than 10000 nM was found for `Cc1ccc(-c2cn3nc(-c4cccnc4C(F)(F)F)ccc3n2)cc1C(=O)O` [Example 481, 2-methyl-5-(6-(2-(trifluoromethyl)pyridin-3-yl)imidazo[1,2-b]pyridazin-2-yl)benzoic acid] in this work.
An IC50 of 1560 nM was found for `Cc1ccc(-c2cn3nc(-c4ccc(N)nc4)ccc3n2)cc1NC(=O)C(C)(C)C` [Example 402, N-(5-(6-(6-aminopyridin-3-yl)imidazo[1,2-b]pyridazin-2-yl)-2-methylphenyl)pivalamide] in this work.
An IC50 of 763 nM was found for `Cc1ccc(-c2cn3nc(-c4ccc(O)cc4Cl)ccc3n2)cc1NC(=O)C(C)(C)C` [compound 548] in this work.
An IC50 of 968 nM was found for `Cc1ccc(-c2cn3nc(N4CCC(NCCCCCCC(=O)NO)C4)ccc3n2)cc1NC(=O)C(C)(C)C` (stereo not drawn) [Example 419, N-hydroxy-7-(1-(2-(4-methyl-3-pivalamidophenyl)imidazo[1,2-b]pyridazin-6-yl)pyrrolidin-3-ylamino)heptanamide] in this work.
An IC50 of 622 nM was found for `Cc1ccc(-c2cn3nc(-c4ccc(NC(=O)CCCCCCC(=O)NO)cc4)ccc3n2)cc1NC(=O)C(C)(C)C` [compound 563] in this work.
An IC50 of 1390 nM was found for `Cc1ccc(-c2cn3nc(N4CCC(NCCCCCC(=O)NO)C4)ccc3n2)cc1NC(=O)C(C)(C)C` (stereo not drawn) [Example 418, N-hydroxy-6-(1-(2-(4-methyl-3-pivalamidophenyl)imidazo[1,2-b]pyridazin-6-yl)pyrrolidin-3-ylamino)hexanamide] in this work.
An IC50 of 8600 nM was found for `Cc1ccc(-c2cn3nc(Cl)ccc3n2)cc1NS(=O)(=O)c1cccc(C=CC(=O)NO)c1` [compound 617] in this work.
An IC50 of 1800 nM was found for `Cc1ccc(-c2cn3nc(-c4cc(CO)ccc4F)ccc3n2)cc1NC(=O)C(C)(C)C` [Example 275, N-(5-(6-(2-fluoro-5-(hydroxymethyl)phenyl)imidazo[1,2-b]pyridazin-2-yl)-2-methylphenyl)pivalamide] in this work.

Same assay, conditions: hShh activation, read-out: Shh (IC50, inhibition of Hedgehog pathway activation)
An IC50 of 701 nM was found for `Cc1ccc(-c2cn3nc(-c4cccnc4C(F)(F)F)ccc3n2)cc1NC(=O)CCCCCCC(=O)O` [compound 553, 8-((2-methyl-5-(6-(2-(trifluoromethyl)pyridin-3-yl)imidazo[1,2-b]pyridazin-2-yl)phenyl)amino)-8-oxooctanoic acid] in this work.
An IC50 of 5430 nM was found for `Cc1ccc(-c2cn3nc(-c4cccnc4C(F)(F)F)ccc3n2)cc1NC(=O)CCCCCCC(=O)O` [Example 430, 8-(2-methyl-5-(6-(2-(trifluoromethyl)pyridin-3-yl)imidazo[1,2-b]pyridazin-2-yl)phenylamino)-8-oxooctanoic acid] in this work.
